Source: patent US7799775B2, “Pyrimidine derivatives” (ASKA Pharmaceutical Co., Ltd., priority 2004, dated 2010)

What was measured:
[1] = biological target: T1, human 5-HT1A receptor (Homo sapiens, UniProt P08908); test: Affinity measurement of the compounds to human 5-HT1A receptor (in vitro), [3H]8-OH-DPAT binding; conditions: test compound 100 nmols/L; [3H]8-OH-DPAT 0.25 nmols/L; CHO cell membrane expressing human 5-HT1A receptor; read-out: Percent Inhibition (%) on Each Receptor's Binding at 10^−7M, 5-HT1A
T1 construct: purchased Packard Bioscience; host or cells: CHO cells (membrane preparation)
T1 sequence (P08908 1-422): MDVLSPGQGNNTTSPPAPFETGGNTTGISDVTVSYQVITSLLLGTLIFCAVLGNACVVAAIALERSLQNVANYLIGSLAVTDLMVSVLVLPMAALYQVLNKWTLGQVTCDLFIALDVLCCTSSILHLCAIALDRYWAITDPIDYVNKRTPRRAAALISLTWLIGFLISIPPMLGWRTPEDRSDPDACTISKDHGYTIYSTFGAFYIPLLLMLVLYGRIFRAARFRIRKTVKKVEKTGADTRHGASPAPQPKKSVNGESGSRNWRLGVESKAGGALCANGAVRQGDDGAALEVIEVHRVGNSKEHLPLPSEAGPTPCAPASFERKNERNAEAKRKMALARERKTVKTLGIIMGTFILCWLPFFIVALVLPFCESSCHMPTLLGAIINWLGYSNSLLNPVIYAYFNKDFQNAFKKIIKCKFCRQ
In short: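 Membranes from CHO cells expressing human 5-HT1A were incubated 60 min at 27 °C with 0.25 nmol/L [3H]8-OH-DPAT and compound in Tris/MgSO4/EDTA/ascorbate buffer, pH 7.4. Bound radioactivity was collected on PEI-soaked GF/C filters and counted; percent inhibition was corrected for non-specific binding defined with 10 μmol/L 8-OH-DPAT.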

[2] = biological target: T2, 5-HT1A receptor (Rattus norvegicus, UniProt P19327); test: Measurement of 5-HT1A receptor agonistic action on rats (in vivo): lower lip retraction and flat body posture; conditions: SD male rats, 10 mg/kg intraperitoneal; maximum of group evaluation points, 4 grades 0-3, observed 5-30 min after administration
T2 construct: from tissue; host or cells: whole animal (SD male rats), behavioural read-out
T2 sequence (P19327 1-422): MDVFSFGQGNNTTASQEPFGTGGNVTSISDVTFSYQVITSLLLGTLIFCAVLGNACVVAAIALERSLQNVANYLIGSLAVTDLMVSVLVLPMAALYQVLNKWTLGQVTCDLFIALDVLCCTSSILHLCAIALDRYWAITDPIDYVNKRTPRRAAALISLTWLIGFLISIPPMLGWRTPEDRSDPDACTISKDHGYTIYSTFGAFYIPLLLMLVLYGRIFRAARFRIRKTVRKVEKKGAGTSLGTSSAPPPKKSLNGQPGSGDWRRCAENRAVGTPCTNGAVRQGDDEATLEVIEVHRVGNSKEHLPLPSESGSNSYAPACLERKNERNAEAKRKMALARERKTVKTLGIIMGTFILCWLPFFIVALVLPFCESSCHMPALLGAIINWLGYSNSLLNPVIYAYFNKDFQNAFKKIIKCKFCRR
Protocol: (3) Measurement of 5-HT1A Receptor Agonistic Action on Rats (in Vivo):
Seven weeks old SD male rats were divided into 4-5 rats per group which were accustomized to the experimental environments twice. A week after the second accustomization, the rats were put into a transparent plastic case, and 10 mg/kg of a test compound (as dissolved in 1N-hydrochloric acid and diluted with suitable amount of saline) was intraperitoneally administered thereto. Immediately before the administration and 5, 10, 20 and 30 minutes after the administration, behaviors of the rats were observed as to lower lip retraction (LLP) and flat body posture (FBP). The results were evaluated in 4 grades (0: no reaction, 1: feeble reaction, 2: medium reaction, 3: maximum reaction).

Row | SMILES | inhibition at 0.1 µM [1] [%] | 5-HT1A Receptor Agonistic Action on Rats, FBP [2] | 5-HT1A Receptor Agonistic Action on Rats, LLR [2]
1 | Cc1ccc2ccnc(N3CCN(C)CC3)c2c1 [Production Example 47, 7-methyl-1-(4-methylpiperazin-1-yl)isoquinoline] | 90.6 |  | 
2 | Clc1ccc2ccnc(N3CCNCC3)c2c1 [Production Example 49, 7-chloro-1-piperazin-1-ylisoquinoline] | 88.7 | 1.8 | 2.2
3 | CN1CCN(c2nccc3ccsc23)CC1 [Production Example 6, 7-(4-methylpiperazin-1-yl)thieno[2,3-c]pyridine] | 90.1 | 2.4 | 2.8
4 | Cc1cc2c(N3CCN4CCC[C@H]4C3)nccc2s1 [Production Example 107, 4-((8aS)-octahydropyrrolo[1,2-a]pyrazin-2-yl)-2-methylthieno[3,2-c]-pyridine] | 98.5 | 3.0 | 2.8
5 | COc1ccc2ccnc(N3CCN4CCC[C@H]4C3)c2c1 [Production Example 72, 1-((8aS)-octahydropyrrolo[1,2-a]pyrazin-2-yl)-7-methoxyisoquinoline] | 96.7 | 3.0 | 3.0
6 | Nn1c(CCCCN2CCN(c3ccc4ccccc4n3)CC2)nc2ccccc2c1=O [Example 4-3, 3-amino-2-[4-(4-quinolin-2-ylpiperazin-1-yl)butyl]-3H-quinazolin-4-one] | 98.2 | 1.8 | 1.8
7 | COc1ccc2ccnc(N3CCNC(C)C3)c2c1 (centres unmarked) [Production Example 38, 7-methoxy-1-(3-methylpiperazin-1-yl)isoquinoline] | 94.8 |  | 
8 | Nn1c(CCCCN2CCN(c3ccc4ccccc4n3)CC2)nc2cccc(Cl)c2c1=O [Example 4-25, 3-amino-5-chloro-2-[4-(4-quinolin-2-ylpiperazin-1-yl)butyl]-3H-quinazolin-4-one] | 99.4 | 1.0 | 0.8
9 | Cn1c(CCCCN2CCN(c3ccc4ccccc4n3)CC2)nc2c(c1=O)CCCC2 [Example 7-1, 3-methyl-2-[4-(4-quinolin-2-ylpiperazin-1-yl)butyl]-5,6,7,8-tetrahydro-3H-quinazolin-4-one] | 97.5 | 1.8 | 2.2
10 | Cc1cc(N2CCN(CCCCc3nc4ccccc4c(=O)n3N)CC2)nc2ccccc12 [Example 4-4, 3-amino-2-[4-[4-(4-methylquinolin-2-yl)piperazin-1-yl]butyl]-3H-quinazolin-4-one] | 98.7 | 2.6 | 2.8
11 | c1cc2ccsc2c(N2CCN3CCC[C@@H]3C2)n1 [Production Example 108, 7-((8aR)-octahydropyrrolo[1,2-a]pyrazin-2-yl)thieno[2,3-c]pyridine] | 90.6 | 0.4 | 2.4
12 | Cn1c(CCCCN2CCN(c3ccc4ccccc4n3)CC2)nc2ccccc2c1=O [Example 7-20, 3-methyl-2-[4-(4-quinolin-2-ylpiperazin-1-yl)butyl]-3H-quinazolin-4-one] | 101 | 1.8 | 1.6
13 | c1cc2ccoc2c(N2CCN3CCC[C@H]3C2)n1 [Production Example 102, 7-((8aS)-octahydropyrrolo[1,2-a]pyrazin-2-yl)furo[2,3-c]-pyridine] | 95.4 | 3.0 | 3.0
14 | c1cc2sccc2c(N2CCN3CCC[C@H]3C2)n1 [Production Example 104, 4-((8aS)-octahydropyrrolo[1,2-a]pyrazin-2-yl)thieno[3,2-c]pyridine] | 85.5 | 0.2 | 1.6
15 | CN1CCN(c2nccc3sccc23)CC1 [Production Example 8, 4-(4-methylpiperazin-1-yl)thieno[3,2-c]pyridine] | 78.3 | 0.8 | 2.0
16 | Nn1c(CCCCN2CCN(c3ccc4ccccc4n3)CC2)nc2c(c1=O)CCCC2 [Example 4-1, 3-amino-2-[4-(4-quinolin-2-ylpiperazin-1-yl)butyl]-5,6,7,8-tetrahydro-3H-quinazolin-4-one] | 101 | 1.8 | 1.5
17 | CCn1c(CCCCN2CCN(c3ccc4ccccc4n3)CC2)nc2c(c1=O)CCCC2 [Example 7-2, 3-2-[4-(4-quinolin-2-ylpiperazin-1-yl)butyl]-5,6,7,8-tetrahydro-3H-quinazolin-4-one] | 93.3 | 0.4 | 0.2
18 | Clc1ccc2ccnc(N3CCN4CCC[C@H]4C3)c2c1 [Production Example 73, 7-chloro-1-((8aS)-octahydropyrrolo[1,2-a]pyrazin-2-yl)isoquinoline] | 98.3 | 2.2 | 2.4
19 | Nn1c(CCCCN2CCN(c3ccc4ccccc4n3)CC2)nc2ccsc2c1=O [Example 4-18, 3-amino-2-[4-(4-quinolin-2-ylpiperazin-1-yl)butyl]-3H-thieno[3,2-d]-pyrimidin-4-one] | 98 | 2.8 | 2.2
20 | c1cc2ccsc2c(N2CCN3CCC[C@H]3C2)n1 [Production Example 103, 7-((8aS)-octahydropyrrolo[1,2-a]pyrazin-2-yl)thieno[2,3-c]pyridine] | 91.4 | 0.4 | 3.0
21 | Cc1cc(N2CCN(CCCCc3nc4c(c(=O)n3C)CCCC4)CC2)nc2ccccc12 [Example 7-6, 3-methyl-2-[4-[4-(4-methylquinolin-2-yl)piperazin-1-yl]butyl]-5,6,7,8-tetrahydro-3H-quinazolin-4-one] | 97.4 | 2.0 | 2.4
22 | CCn1c(CCCCN2CCN(c3cc(C)c4ccccc4n3)CC2)nc2c(c1=O)CCCC2 [Example 7-7, 3-ethyl-2-[4-[4-(4-methylquinolin-2-yl)piperazin-1-yl]butyl]-5,6,7,8-tetrahydro-3H-quinazolin-4-one] | 96.9 | 2.2 | 2.2
